Assay [1] in a line: Cytotoxicity against human EU-1 cells assessed as inhibition of cell viability incubated for 24 to 72 hrs by CCK8 assay. It counts as functional, cell-based. A general note: Formazan colour is commonly taken as a measure of viable cells.
Assay [2] concerns the target E3 ubiquitin-protein ligase Mdm2 (Homo sapiens) (UniProt Q00987). As to the kind of experiment: Induction of MDM2 degradation in human EU-1 cells at 0.8 uM by Western blot analysis. The format is cell-based. Particulars: time <= 24.0 hrs, TDE = time-dependent effect. On the technique in general: In western blotting, separated proteins are transferred to a membrane and probed.

Assay [3] shares this target. As to the kind of experiment: Induction of MDM2 degradation in human EU-1 cells assessed as increase in p53 level at 0.8 uM by Western blot analysis. The format is cell-based. Particulars: time <= 24.0 hrs, TDE = time-dependent effect.
The target is the same in assay [4]. Put plainly: Induction of MDM2 degradation in human EU-1 cells incubated for 6 hrs by Western blot analysis. The format is cell-based. Particulars: dose <= 2.0 µM.
For assay [5] the target is unchanged. Put plainly: Induction of MDM2 degradation in human EU-1 cells assessed as increase in p53 level incubated for 6 hrs by Western blot analysis. The conditions noted are these: dose <= 2.0 µM. It counts as cell-based.

Nine molecules from ChEMBL document CHEMBL5532736, “Novel Approaches for Upregulation of Tumor Suppressor Proteins: Pioneering Strategies and Integrative Potentials” (ACS Med Chem Lett, 2024) can be followed below.

Sequence of E3 ubiquitin-protein ligase Mdm2 (Homo sapiens) (Q00987 whole entry, looked up): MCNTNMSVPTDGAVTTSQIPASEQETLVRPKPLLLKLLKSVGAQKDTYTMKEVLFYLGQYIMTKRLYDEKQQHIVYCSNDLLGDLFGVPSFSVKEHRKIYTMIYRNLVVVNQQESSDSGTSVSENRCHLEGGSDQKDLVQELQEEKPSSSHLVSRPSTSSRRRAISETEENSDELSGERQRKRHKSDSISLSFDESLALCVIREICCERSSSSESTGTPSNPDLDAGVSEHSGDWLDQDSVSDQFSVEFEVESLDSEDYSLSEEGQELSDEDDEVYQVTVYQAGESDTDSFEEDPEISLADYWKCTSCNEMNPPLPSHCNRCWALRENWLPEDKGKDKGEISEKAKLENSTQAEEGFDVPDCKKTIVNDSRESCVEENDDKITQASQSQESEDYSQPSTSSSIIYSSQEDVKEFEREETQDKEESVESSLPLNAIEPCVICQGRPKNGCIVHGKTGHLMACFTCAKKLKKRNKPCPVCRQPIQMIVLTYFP

One may read the IC50 as the midpoint of a concentration-inhibition curve. On to `O=C(CCl)Nc1cc(OCCO)c2c(c1)C(=O)c1cccc(OCCO)c1C2=O`, for which the IC50 in assay [1] stood at 740 nM. `CC(=O)CCCOc1cccc2c1C(=O)c1c(OCCCC(C)=O)cc(NC(=O)CCl)cc1C2=O`: the Activity entry is “Tde” in assay [2], “Tde” in assay [3], “Dose-Dependent Effect” in assay [4] and “Dose-Dependent Effect” in assay [5]. Besides, the IC50 in assay [1] amounted to 430 nM.

For the molecule `C=CC(=O)Nc1cc(OCCCC(C)=O)c2c(c1)C(=O)c1cccc(OCCCC(C)=O)c1C2=O`, the IC50 in assay [1] worked out at 6210 nM. Same read-out and setting: then `C=CS(=O)(=O)Nc1cc(OCCCC(C)=O)c2c(c1)C(=O)c1cccc(OCCCC(C)=O)c1C2=O`, with 3450 nM; and `CC(=O)CCOc1cccc2c1C(=O)c1c(OCCC(C)=O)cc(NC(=O)CCl)cc1C2=O`, with 450 nM. On the same count and under the same terms, for `CC(=O)CCCCOc1cccc2c1C(=O)c1c(OCCCCC(C)=O)cc(NC(=O)CCl)cc1C2=O` the value was 790 nM. The same measure, in the same setting: then `CC(=O)CCCOc1cccc2c1C(=O)c1c(OCCCC(C)=O)cc(NC(C)=O)cc1C2=O`, with above 100000 nM; and `C#CC(=O)Nc1cc(OCCCC(C)=O)c2c(c1)C(=O)c1cccc(OCCCC(C)=O)c1C2=O`, with 190 nM; and `CC(=O)CCCOc1cc(NC(=O)CCl)cc2c1C(=O)c1c(O)cccc1C2=O`, with 840 nM.
